ChEMBL document CHEMBL4190345, “Synthesis and biological evaluation of new substituted thioglycolurils, their analogues and derivatives” (Eur J Med Chem, 2017)

Experiments:
A549 = assay: Cytotoxicity in human A549 cells assessed as inhibition of cell growth incubated for 72 hrs by MTT assay; type: functional, cell-based; conditions: A549, 72 h
RD = assay: Cytotoxicity in human RD cells assessed as inhibition of cell growth incubated for 72 hrs by MTT assay; type: functional, cell-based
[1] = Cytotoxicity in human […] cells assessed as inhibition of cell growth incubated for 72 hrs by MTT assay; type: functional, cell-based
Bipolaris sorokiniana = assay: Fungicidal activity against Bipolaris sorokiniana grown under potato-saccharose agar assessed as inhibition of mycelial radial growth at 30 mg/l incubated for 72 hrs; type: functional; conditions: read-out: GI
Sclerotinia sclerotiorum = assay: Fungicidal activity against Sclerotinia sclerotiorum grown under potato-saccharose agar assessed as inhibition of mycelial radial growth at 30 mg/l incubated for 72 hrs; type: functional; conditions: read-out: GI
Fusarium verticillioides = assay: Fungicidal activity against Fusarium moniliforme grown under potato-saccharose agar assessed as inhibition of mycelial radial growth at 30 mg/l incubated for 72 hrs; type: functional; conditions: read-out: GI
Venturia inaequalis = assay: Fungicidal activity against Venturia inaequalis grown under potato-saccharose agar assessed as inhibition of mycelial radial growth at 30 mg/l incubated for 72 hrs; type: functional; conditions: read-out: GI
MCF7 = assay: Cytotoxicity in human MCF7 cells assessed as inhibition of cell growth incubated for 72 hrs by MTT assay; type: functional, cell-based; conditions: MCF7, 72 h
Fusarium oxysporum = assay: Fungicidal activity against Fusarium oxysporum grown under potato-saccharose agar assessed as inhibition of mycelial radial growth at 30 mg/l incubated for 72 hrs; type: functional; conditions: read-out: GI
HEK293 = assay: Cytotoxicity in human HEK293 cells assessed as inhibition of cell growth incubated for 72 hrs by MTT assay; type: cell-based
Rhizoctonia solani = assay: Fungicidal activity against Rhizoctonia solani grown under potato-saccharose agar assessed as inhibition of mycelial radial growth at 30 mg/l incubated for 72 hrs; type: functional; conditions: read-out: GI
[2] = Homo sapiens, HEK293, 72 h, read-out: IC50

Row | Structure (SMILES) | IC50 (A549) | IC50 (RD) | IC50 [1] | inhibition of growth at 30 µg/mL (Bipolaris sorokiniana) | inhibition of growth at 30 µg/mL (Sclerotinia sclerotiorum) | inhibition of growth at 30 µg/mL (Fusarium verticillioides) | inhibition of growth at 30 µg/mL (Venturia inaequalis) | IC50 (MCF7) | inhibition of growth at 30 µg/mL (Fusarium oxysporum) | IC50 (HEK293; [2]) | inhibition of growth at 30 µg/mL (Rhizoctonia solani) | IC50 (HEK293; hek293)
1 | CCSC1=NC2C(N(CC)C(=O)N2CC)N1/N=C/C=C/c1ccccc1[N+](=O)[O-] (stereo not given) | > 100 µM | 2.45 µM | 5.07 µM | 39% | 12% | 22% | 10% | 30.7 µM | 12% | 221 µM | 44% | –
2 | COc1ccccc1/C=C/C=N/N1C(SC)=NC2C1N(C)C(=O)N2C (stereo not given) | – | – | – | 33% | 13% | 14% | 13% | – | 20% | – | 56% | –
3 | CCN1C(=O)N(CC)C2C1N=C(SCc1ccc(Cl)cc1)N2/N=C/C=C/c1ccccc1OC (stereo not given) | – | – | – | 36% | 14% | 13% | 21% | – | 8% | – | 19% | –
4 | CCN1C(=O)N(CC)C2C1NC(=S)N2/N=C/C(C)=C/c1ccccc1 (stereo not given) | > 100 µM | 20 µM | 26.6 µM | 7% | 5% | 41% | 25% | 35.1 µM | 23% | – | 34% | –
5 | CN1C(=O)N(c2ccccc2)C2NC(=S)N(/N=C/C=C/c3ccccc3)C21 (stereo not given) | > 100 µM | 1.69 µM | 12.1 µM | – | – | – | – | > 100 µM | – | 167 µM | – | –
6 | COc1cccc2c1C(=O)c1c(O)c3c(c(O)c1C2=O)C[C@@](O)(C(=O)CO)C[C@@H]3O[C@H]1C[C@H](N)[C@H](O)[C@H](C)O1 [DOXORUBICIN] | 0.53 µM | 0.53 µM | 0.19 µM | – | – | – | – | 0.56 µM | – | 2.1 µM | – | –
7 | CN1C(=O)N(C)C2C1NC(=S)N2/N=C/C=C/c1ccccc1 (stereo not given) | 45.6 µM | 46 µM | 43 µM | – | – | – | – | > 100 µM | – | – | – | –
8 | CCN1C(=O)N(CC)C2C1N=C(SC)N2/N=C/C=C/c1ccccc1OC (stereo not given) | 4.79 µM | 7.97 µM | 1.09 µM | 47% | 23% | 42% | 20% | 34.6 µM | 51% | 145 µM | 65% | –
9 | CC(/C=N/N1C(=S)NC2C1N(C)C(=O)N2C)=C\c1ccccc1 (stereo not given) | 49.4 µM | 84 µM | 75.9 µM | 9% | 11% | 20% | 28% | > 100 µM | 29% | – | 82% | –
10 | CCN1C(=O)N(CC)C2C1N=C(SC)N2/N=C/C=C/c1ccccc1[N+](=O)[O-] (stereo not given) | > 100 µM | 41.9 µM | 65.6 µM | – | – | – | – | 66.7 µM | – | – | – | –
11 | CCN1C(=O)N(CC)C2C1NC(=O)N2/N=C/C=C/c1ccccc1[N+](=O)[O-] (stereo not given) | > 100 µM | 1.93 µM | 9.63 µM | – | – | – | – | 88 µM | – | 42.9 µM | – | –
12 | CSC1=NC2C(N(C)C(=O)N2c2ccccc2)N1/N=C/C=C/c1ccccc1[N+](=O)[O-] (stereo not given) | – | – | – | 37% | 17% | 9% | 16% | – | 10% | – | 12% | –
13 | CCN1C(=O)N(CC)C2C1NC(=S)N2/N=C/C=C/c1ccccc1[N+](=O)[O-] (stereo not given) | > 100 µM | 15.2 µM | 7.71 µM | – | – | – | – | 43.9 µM | – | 19.3 µM | – | –
14 | CCSC1=NC2C(N(C)C(=O)N2C)N1/N=C/C=C/c1ccccc1 (stereo not given) | – | – | – | 48% | 32% | 71% | 28% | – | 70% | – | 80% | –
15 | CCN1C(=O)N(CC)C2C1NC(=O)N2/N=C/C=C/c1ccccc1 (stereo not given) | 44.3 µM | 2.02 µM | 18.3 µM | – | – | – | – | 83.2 µM | – | – | – | Not Active
16 | CCN1C(=O)N(CC)C2C1N=C(SC)N2/N=C/C=C/c1ccccc1 (stereo not given) | 21.4 µM | 24 µM | 5.47 µM | 49% | 11% | 37% | 13% | 46.6 µM | 38% | 151 µM | 60% | –

Row | Structure (SMILES) | IC50 (A549) | IC50 (RD) | IC50 [1] | inhibition of growth at 30 µg/mL (Bipolaris sorokiniana) | inhibition of growth at 30 µg/mL (Sclerotinia sclerotiorum) | inhibition of growth at 30 µg/mL (Fusarium verticillioides) | inhibition of growth at 30 µg/mL (Venturia inaequalis) | IC50 (MCF7) | inhibition of growth at 30 µg/mL (Fusarium oxysporum) | IC50 (HEK293; [2]) | inhibition of growth at 30 µg/mL (Rhizoctonia solani) | IC50 (HEK293; hek293)
17 | CCN1C(=O)N(CC)C2C1NC(=S)N2/N=C/C=C/c1ccccc1 (stereo not given) | 6.53 µM | 2.25 µM | 4.38 µM | 19% | 3% | 41% | 12% | 36.1 µM | 36% | 42.1 µM | 42% | –
18 | COc1ccc(/C=C/C=N/N2C(SC)=NC3C2N(C)C(=O)N3C)cc1 (stereo not given) | – | – | – | 50% | 19% | 36% | 13% | – | 24% | – | 74% | –
19 | CCN1C(=O)N(CC)C2C1NC(=S)N2/N=C/C=C/c1ccc(OC)cc1 (stereo not given) | 17.2 µM | 87 µM | 17.4 µM | 19% | 0% | 23% | 14% | 36.6 µM | 18% | – | 26% | –
20 | CC(C)(C)C(=O)C(Oc1ccc(Cl)cc1)n1cncn1 (stereo not given) [TRIADIMEFON] | – | – | – | 76% | 61% | 61% | 60% | – | 64% | – | 52% | –
21 | COc1cccc2c1C(=O)c1c(O)c3c(c(O)c1C2=O)C[C@@](O)(C(C)=O)C[C@@H]3O[C@H]1C[C@H](N)[C@H](O)[C@H](C)O1 [DAUNORUBICIN] | 0.51 µM | 2.45 µM | 0.21 µM | – | – | – | – | 1.44 µM | – | 11.2 µM | – | –
22 | CCSC1=NC2C(N(CC)C(=O)N2CC)N1/N=C/C=C/c1ccccc1 (stereo not given) | – | – | – | 77% | 29% | 63% | 30% | – | 61% | – | 67% | –
23 | CN1C(=O)N(C)C2C1N=C(SCc1ccc(Cl)cc1)N2/N=C/C=C/c1ccco1 (stereo not given) | – | – | – | 40% | 19% | 42% | 10% | – | 33% | – | 42% | –
24 | CSC1=NC2C(N(C)C(=O)N2C)N1/N=C/C=C/c1ccco1 (stereo not given) | – | – | – | 34% | 11% | 51% | 19% | – | 34% | – | 27% | –
25 | CCN1C(=O)N(CC)C2C1N=C(SC)N2/N=C/C=C/c1ccc(OC)cc1 (stereo not given) | – | – | – | 64% | 12% | 32% | 13% | – | 32% | – | 76% | –
26 | COc1ccc(/C=C/C=N/N2C(=S)NC3C2N(C)C(=O)N3C)cc1 (stereo not given) | > 100 µM | > 100 µM | 99.1 µM | – | – | – | – | > 100 µM | – | – | – | –
27 | CN1C(=O)N(C)C2C1N=C(SCc1ccc(Cl)cc1)N2/N=C/C=C/c1ccccc1 (stereo not given) | – | – | – | 49% | 17% | 57% | 18% | – | 46% | – | 28% | –
28 | CSC1=NC2C(N(C)C(=O)N2c2ccccc2)N1/N=C/C=C/c1ccccc1 (stereo not given) | – | – | – | 56% | 0% | 16% | 24% | – | 25% | – | 32% | –
29 | CSC1=NC2C(N(C)C(=O)N2C)N1/N=C/C=C/c1ccccc1 (stereo not given) | – | – | – | 50% | 17% | 73% | 9% | – | 71% | – | 45% | –
30 | CCN1C(=O)N(c2ccccc2)C2NC(=S)N(/N=C/C=C/c3ccccc3)C21 (stereo not given) | > 100 µM | 0.47 µM | 1.46 µM | – | – | – | – | 2.25 µM | – | 2.17 µM | – | –
31 | CN1C(=O)N(C)C2C1NC(=O)N2/N=C/C=C/c1ccccc1 (stereo not given) | – | – | – | 5% | 12% | 9% | 18% | – | 6% | – | 92% | –
32 | CSC1=NC2C(N(C)C(=O)N2C)N1/N=C/C=C/c1ccccc1[N+](=O)[O-] (stereo not given) | > 100 µM | > 100 µM | > 100 µM | 36% | 13% | 19% | 10% | > 100 µM | 20% | – | 49% | –
